Literature values, collected in patent US6660297B2, “Nutritional supplement to treat macular degeneration” (Bausch & Lomb Incorporated, priority 2001, dated 2003).
Read-outs that look alike come from different tables or passages of the source. Blank lines part the entries; values can stand above or below the compound they belong to.

Tests used:
[1] = in vivo
[2] = in vivo; remark: listed apart in the source
macular degeneration = conditions: 80 mg of zinc versus placebo
[3] = not given; remark: listed apart in the source
[4] = in vivo; remark: listed apart in the source
[5] = 1.0 mg equal to 1 IU
[6] = consumed daily

Compound: [Cu] [copper]
effect on zinc absorption [1]: does not appear to have a deleterious effect

time stored vitamin E contributes to the total body pool [2]: up to one
Compound: vitamin E

Compound: [Zn] [zinc]
tolerability (about 200 mg per day): well tolerated
side effects (about 200 mg per day, attributable to copper deficiency): potential side effects such as anemia
retarding macular degeneration changes (macular degeneration): significantly better than placebo

Compound: CC1=C(/C=C/C(C)=C/C=C/C(C)=C/C=C/C=C(C)/C=C/C=C(C)/C=C/C2=C(C)CCCC2(C)C)C(C)(C)CCC1 [beta-carotene]
observed risk in individuals who receive 20 mg/day ([3]; male smokers): increased risk of lung cancer
observed risk in individuals who receive 20 mg/day ([3]; men with previous myocardial infarction): increased risk of fatal coronary heart attacks
dosage level with no observed adverse effects ([3]; healthy, non-smokers): ≤ 25 mg per day
efficiency of conversion to vitamin A in the body [4]: approximately 50%

Compound: CC(=O)Oc1c(C)c(C)c2c(c1C)CC[C@@](C)(CCC[C@H](C)CCC[C@H](C)CCCC(C)C)O2 (racemic) [dl-alpha tocopheryl acetate]
level at which no adverse effects have been observed [5]: ≤ 800 mg

Compound: O=C1O[C@H]([C@@H](O)CO)C(O)=C1O [vitamin C, Ascorbic acid]
daily intake without any known adverse effects [6]: ≥ 1,000 mg

Compound: [O]=[Zn] [zinc oxide]
tolerability in the digestive system (in vivo): well tolerated
